Laboratory results as given in patent US6703483B1, “Compounds useful in pain management” (Cornell Research Foundation, Inc., priority 1999, dated 2004).

Assays:
[1] = 2 h after i.th. administration, dose 7.5 μg (32×ED50); cited from earlier work
[2] = In vivo disposition in pregnant sheep (fetal plasma, placental transfer); conditions: i.v. infusion to pregnant sheep
Method: The in vivo disposition after i.v. administration to pregnant sheep was examined by using procedures described in the literature (H. H. Szeto et al. J. Pharmacol. Exp. Ther. 284. 61-65 (1998)). Chronic indwelling catheters were surgically placed in four pregnant ewes (gestional age, 115-120 days; term ˜145 days) as described by H. H. Szeto et al., Am. J. Physiol. 258, R1453-R1458 (1990). […] The compounds according to the invention were administered as a constant-rate intravenous infusion (0.6 mg/kg/h and 0.06 mg/kg/h, respectively, for 4 h) to the sheep, and blood samples were collected at 0, 1, 2, 3, 3.5, 4, 4.25, 4.5, 5, 6, 7, 12 and 24 h. Blood samples were collected form the fetus at 0, 3, 3.5, 4, 5 and 6 h. All blood samples were collected into chilled borosilicate glass tubes containing EDTA and centrifuged, and the plasma was stored in glass containers with Teflon-lined caps and frozen at −80° C.
The compounds were quantified by using reversed-phase HPLC and MS detection, as described by Grigoriants et al., J. Chromatogr. B, Biomedical Applications 695, 287-298 (1997). […] The filtered plasma sample was chromatographed on an RP-analytical column (Delta Pak, 5 μm, C18, 100 Å, 150×3.9 mm; Waters, Milford, Mass.) at a flow rate of 1.5 ml/min, and UV absorption was monitored at 200 nm. […] Continuous flow-LSIMS was used to quantify DALDA. […]

μ receptor = target: T1, μ receptor (Rattus norvegicus, UniProt P33535); conditions: rat brain membranes; cited from earlier work
T1 construct: from tissue; host or cells: rat brain (cerebellum removed) membranes
T1 sequence (P33535 whole entry): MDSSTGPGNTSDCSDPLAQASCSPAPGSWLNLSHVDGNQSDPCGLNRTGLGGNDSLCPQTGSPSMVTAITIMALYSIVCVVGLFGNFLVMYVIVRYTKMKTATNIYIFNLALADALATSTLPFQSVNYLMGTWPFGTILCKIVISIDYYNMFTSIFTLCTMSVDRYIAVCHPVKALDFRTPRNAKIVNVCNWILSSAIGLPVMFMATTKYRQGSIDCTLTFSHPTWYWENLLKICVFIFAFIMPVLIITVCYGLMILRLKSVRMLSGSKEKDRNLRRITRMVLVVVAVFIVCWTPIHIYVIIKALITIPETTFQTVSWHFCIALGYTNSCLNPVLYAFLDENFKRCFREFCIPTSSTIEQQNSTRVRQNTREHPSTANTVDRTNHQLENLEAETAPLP

μ receptors = conditions: GPI; cited from earlier work
[3] = Respiratory depression studies (whole body plethysmography) after i.th. administration; conditions: rat; for decrease of minute ventilation: during 3 to 6 hours after administration
Method: Whole body plethysmography was performed as described in the literature (K. Tatsumi et al., J. Appl. Physiol. 71, 37-42 (1991)). An unrestrained rat was placed in a 3-liter whole-body plethysmograph chamber and breathed 100% humidified air supplied into and out of the chamber at a rate of 1000 ml/min. After a 15-min acclimation period the inlet and outlet of the chamber were closed and the pressure changes in the box, caused by the warming and wetting of the gas inspired by the rat and the cooling and drying of the expired gas, were recorded using a high-gain differential pressure transducer. A calibration volume of 0.2 ml of air was regularly introduced into the chamber during the recordings. The recordings were made for 20-30 seconds. Subsequently, the inlet and outlet were opened, and the gas supply was changed to a mixture of 5% CO2 and 21% O2 in N2 (100% humidified) and the rat was allowed to breathe the gas mixture for 5 min to reach a steady-state ventilatory condition. The recordings of changes in pressure were repeated with the chamber closed. Tidal volumes were calculated from the pressure changes using the equation derived by J. E. Drorbaugh and W. O. Fenn, Pediatrics 16, 81-87 (1955). Respiratory frequencies were also determined from the number of respiratory cycles in the recordings and minute ventilations were calculated (tidal volume x frequency).
Compounds were administered at a low dose (3×ED50 determined in the analgesic test) and at a high dose (30×ED50).

[4] = Hemodynamic and metabolic effects in the pregnant sheep model; format: in vivo; conditions: i.v. infusion 0.6 mg/kg/h and 0.06 mg/kg/h, respectively
Method: Using the same instrumented pregnant sheep model described above, DALDA and its analogs were administered by i.v. infusion at a dose of 0.6 mg/kg/h and 0.06 mg/kg/h, respectively. No effect on maternal blood pressure, heart rate, blood gases and plasma glucose were observed. Similarly, neither peptide had any effect on fetal blood pressure, heart rate, blood gases and plasma glucose.

SMILES | delayed respiratory depression [1] | crossing of the placental barrier [2] | μ receptor affinity (μ receptor) | μ receptor selectivity (μ receptor) | μ agonist potency (μ receptors) | decrease of minute ventilation ([3]; high dose (30×ED50)) [%] | decrease of minute ventilation ([3]; low dose (3×ED50)) [%] | effect on maternal blood pressure, heart rate, blood gases and plasma glucose [4] | decrease of minute ventilation compared to saline control ([3]; low dose (3×ED50) and high dose (30×ED50))
NCCCC[C@H](NC(=O)[C@H](Cc1ccccc1)NC(=O)[C@@H](CCCN=C(N)N)NC(=O)[C@@H](N)Cc1ccc(O)cc1)C(N)=O [DALDA, H-Tyr-D-Arg-Phe-Lys-NH2] | did produce delayed respiratory depression | do not cross the placental barrier to a significant extent | high μ receptor affinity | excellent μ receptor selectivity | considerable μ agonist potency | 30 | 26 | No effect | –
Cc1cc(O)cc(C)c1C[C@H](N)C(=O)N[C@H](CCCNC(=N)N)C(=O)N[C@@H](Cc1ccccc1)C(=O)N[C@@H](CCCCN)C(N)=O [Example 1, H-Dmt-D-Arg-Phe-Lys-NH2] | – | – | – | – | – | – | – | – | Neither dose of H-Dmt-D-Arg-Phe-Lys-NH2 significantly decreased minute ventilation
CN1CC[C@]23c4c5ccc(O)c4O[C@H]2[C@@H](O)C=C[C@H]3[C@H]1C5 [morphine] | – | – | – | – | – | 26 | – | – | –
